Source: PMC9132363 (Journal of Medicinal Chemistry, 2022)
Read-outs that look alike come from different tables or passages of the source.

Columns and labels:
HEK293T cells = experiment: MTT viability assay; type: cell-based, human; conditions: 20 µM, Table S3
Procedure: (§1) HEK293T cells were plated in 24-well culture plates (75,000 cells/well) and incubated in a CO2 incubator. The next day, treatment was given according to the experimental requirement. Sixteen hours later, 50 μL of MTT solutions from the stock (5 mg/mL) was added, and cells were incubated in a CO2 incubator in the dark for 2 h. The medium was removed, and formazan crystals formed by the cells were dissolved using 500 μL of DMSO followed by transfer in 96-well plates. The absorbance was read at a 570 nm wavelength on a multiwell plate reader.[70]

MTT viability assay = type: cell-based, human; conditions: human, HEK293T cells, HEK293T, 16 h, read-out: Cell viability (MTT)
Procedure: as §1

[1] = Liver microsome stability assay; conditions: human, pooled human liver microsomes, pH 7.4
Procedure: This assay provides information on the metabolic stability of early drug discovery compounds based on liver microsomes. […] The reaction was initiated by adding NADPH (1 mM final concentration). Aliquots of 150 μL were collected at defined time points (0, 5, 15, 30, and 60 min) and added to cold acetonitrile (150 μL) containing an internal standard (5 μg/mL warfarin) to stop the reaction and precipitate the protein. […] Data were log transformed and represented as half-life. All experiments were conducted in duplicates.

[2] = DPPH radical scavenging assay; type: physicochemical
Procedure: The antioxidant activity was determined by the 2,2-diphenyl-1-picrylhydrazyl hydrate (DPPH) assay.[65]−[67] All the measurements were performed in an 80% MeOH solution, with the final reaction volume being 3 mL. A stock of DPPH solution in DMSO (10^–2 M) was prepared and stored at −20 °C, and the same procedure was performed with the antioxidant solution. Then, the DPPH stock solution was diluted to 2 mL with a final concentration of 150 μM (final volume of 3 mL and final concentration of 100 μM). The antioxidant stock was sequentially diluted to 1 mL at 3, 9, 30, 90, and 300 μM (final volume of 3 mL and final concentrations of 1, 3, 10, 30, and 100 μM). The mixture was incubated at room temperature for 30 min. Once this time had passed, the absorbance was measured in a spectrophotometer at 517 nm. Trolox, caffeic acid, and ferulic acid were used as a standard (1, 3, 10, 30, and 100 μM final concentrations). A blank using 80% MeOH solution instead of the corresponding antioxidant was used in each assay. Two independent measurements of each sample were performed. Data were processed using Origin software, and sigmoidal fitting according to the DoseResp function was performed to extrapolate the IC50 (μM) of each antioxidant.

[3] = target: human serum albumin (HSA) (Homo sapiens, UniProt P02768); experiment: Serum albumin binding by fluorescence quenching; conditions: HSA 2 μM, λex 280 nm, λem 337 nm
Procedure: After each addition, the mixture was incubated at rt for 5 min, and then, the emission fluorescence spectra of HAS (λ = 280 nm) were measured using a Fluorometer Max-4P (Horiba Jobin Yvon). The data obtained were further processed using the Stern–Volmer and Scatchard models in GraphPad Prism 8.0 software.

[4] = test system: HMOX1/HO-1 and NQO1 in SH-SY5Y cells; experiment: NRF2 signature (qRT-PCR and immunoblot) in SH-SY5Y cells; type: cell-based
Procedure: Whole cell lysates were prepared in RIPA-buffer (25 mM Tris-HCl, pH 7.6, 150 mM NaCl, 1 mM EGTA, 1% Igepal, 1% sodium deoxycholate, 0.1% SDS, 1 mM PSMF, 1 mM Na3VO4, 1 mM NaF, 1 μg/mL aprotinin, 1 μg/mL leupeptin, and 1 μg/mL pepstatin). Whole cell lysates, cytosolic and nuclear fractions containing 25 μg of whole proteins from SH-SY5Y, or lymphoblast-treated cells were loaded for SDS-PAGE electrophoresis. Immunoblots were analyzed as described previously.[48] The primary antibodies used are described in Supporting Information Table S4.
(§2) Total RNA extraction, reverse transcription, and quantitative polymerase chain reaction (PCR) were done as detailed in previous articles.[72] Primer sequences are shown in Supporting Information Table S5. Data analysis was based on the ΔΔCT method with normalization of the raw data to housekeeping genes (Applied Biosystems). All PCRs were performed in triplicates.

SOD1-ALS lymphoblasts = experiment: NRF2 pathway in SOD1-ALS lymphoblasts; type: cell-based, human; conditions: 20 μM, 24 h
Text: Peripheral blood samples of all the individuals enrolled in this study were collected after written informed consent of the patients or their relatives (demographic information is presented in Table 9) to establish the lymphoblastoid cell lines (LCLs), by infecting peripheral blood lymphocytes with the Epstein–Barr virus (EBV), as previously described.[68] Participants or their relatives gave written informed consent. This study was approved by the Hospital Doce de Octubre and the Spanish Council of Higher Research Institutional Review Boards. All patients were diagnosed by applying the revised El Escorial criteria.[69] […] Genetic testing for SOD1, TARDBP, FUS, and C9ORF72 was performed in all cases.
LCLs were grown in suspensions in T flasks, in an RPMI-1640 medium containing 2 mM L-glutamine, 100 μg/mL streptomycin/penicillin, and 10% (v/v) fetal bovine serum (FBS) and maintained in a humidified 5% CO2 incubator at 37 °C.
Whole cell lysates were prepared in RIPA-buffer (25 mM Tris-HCl, pH 7.6, 150 mM NaCl, 1 mM EGTA, 1% Igepal, 1% sodium deoxycholate, 0.1% SDS, 1 mM PSMF, 1 mM Na3VO4, 1 mM NaF, 1 μg/mL aprotinin, 1 μg/mL leupeptin, and 1 μg/mL pepstatin). […] Immunoblots were analyzed as described previously.[48] […]
Total RNA extraction, reverse transcription, and quantitative polymerase chain reaction (PCR) were done as detailed in previous articles.[72] […]

NRF2 = experiment: 3×ARE-LUC luciferase reporter assay; type: cell-based, human
Procedure: Transient transfections of HEK293T cells were performed with the expression vectors for TK-Renilla (Promega, Madison, […]) and the expression vector ARE-LUC (Dr. J. Alam, Dept. of Molecular Genetics, Ochsner Clinic Foundation, New Orleans, LA). Cells were seeded on 24-well plates (75,000 cells per well), cultured for 16 h, and transfected using calcium phosphate. Eight hours after transfections, cells were treated with 3 different concentrations of the compounds (6, 20, and 60 μM). […] After 16 h, the cells were lysed and assayed with a dual-luciferase assay system (Promega) according to the manufacturer’s instructions. Relative light units were measured in a GloMax 96 microplate luminometer with dual injectors (Promega).

[5] = target: NRF2–KEAP1 protein–protein interaction (Homo sapiens, UniProt Q14145); experiment: Fluorescence polarization (FP) assay; type: binding
Keap1+/+ MEFs = experiment: qRT-PCR of NRF2 target genes in wild-type MEFs; type: cell-based, mouse; conditions: 20 μM, 4, 8 and 24 h
Procedure: Human embryonic kidney (HEK) 293T cells were grown in Dulbecco’s modified Eagle’s medium (DMEM) supplemented with 10% fetal bovine serum and 80 μg/mL gentamycin. Transient transfections were performed with calcium phosphate using reagents from Sigma. The Keap1^–/– mouse embryo fibroblasts (MEFs) and their corresponding wild-type Keap1^+/+ MEFs were kindly provided by Dr. Ken Itoh (Department of Stress Response Science, Center for Advanced Medical Science, Hirosaki University, Japan). MEFs were grown in DMEM supplemented with 10% fetal bovine serum, 1% penicillin/streptomycin, and 2 mm L-glutamine. SH-SY5Y cells were grown in DMEM and Ham’s F12 supplemented with 10% fetal bovine serum (FBS) and 1% penicillin/streptomycin. The medium was changed to serum-free DMEM without antibiotics 16 h before treatments. DMF (cat. no. 242926, Sigma-Aldrich) was used at 20 μM for 16 h.
as §2

Chain of NRF2–KEAP1 protein–protein interaction (Q14145 whole entry): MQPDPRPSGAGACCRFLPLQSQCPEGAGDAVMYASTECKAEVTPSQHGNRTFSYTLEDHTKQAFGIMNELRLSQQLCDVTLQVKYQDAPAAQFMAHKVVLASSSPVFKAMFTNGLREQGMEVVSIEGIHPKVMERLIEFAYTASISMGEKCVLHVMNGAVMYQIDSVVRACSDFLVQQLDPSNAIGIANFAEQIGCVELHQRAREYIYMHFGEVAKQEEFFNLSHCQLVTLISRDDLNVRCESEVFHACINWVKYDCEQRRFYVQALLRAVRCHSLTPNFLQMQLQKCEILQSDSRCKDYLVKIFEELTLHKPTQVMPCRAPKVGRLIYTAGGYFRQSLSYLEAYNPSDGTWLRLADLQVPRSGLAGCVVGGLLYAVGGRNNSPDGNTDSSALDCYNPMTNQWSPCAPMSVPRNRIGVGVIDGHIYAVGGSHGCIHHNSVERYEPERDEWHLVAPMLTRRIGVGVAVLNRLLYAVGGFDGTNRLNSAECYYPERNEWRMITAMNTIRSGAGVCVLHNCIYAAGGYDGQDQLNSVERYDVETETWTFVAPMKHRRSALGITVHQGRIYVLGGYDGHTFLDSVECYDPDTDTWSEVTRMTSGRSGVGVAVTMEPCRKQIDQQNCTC
Chain of human serum albumin (HSA) (P02768 25-609): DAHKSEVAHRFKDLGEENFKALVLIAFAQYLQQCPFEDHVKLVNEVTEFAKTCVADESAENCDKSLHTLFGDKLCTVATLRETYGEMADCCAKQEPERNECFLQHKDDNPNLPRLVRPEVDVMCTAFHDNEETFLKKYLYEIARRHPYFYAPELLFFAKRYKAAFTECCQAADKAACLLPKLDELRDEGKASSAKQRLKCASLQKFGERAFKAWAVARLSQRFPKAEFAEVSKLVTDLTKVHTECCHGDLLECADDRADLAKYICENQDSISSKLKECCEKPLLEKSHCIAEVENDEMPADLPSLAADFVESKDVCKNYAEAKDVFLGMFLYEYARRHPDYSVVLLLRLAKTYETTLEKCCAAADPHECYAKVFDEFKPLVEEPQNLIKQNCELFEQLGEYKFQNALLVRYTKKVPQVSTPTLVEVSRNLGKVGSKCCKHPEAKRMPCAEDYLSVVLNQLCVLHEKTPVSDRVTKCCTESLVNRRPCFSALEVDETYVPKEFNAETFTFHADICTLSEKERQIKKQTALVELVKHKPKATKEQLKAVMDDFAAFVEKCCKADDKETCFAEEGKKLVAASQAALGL

O=C(CCc1ccc(O)c(O)c1)N1CCCN(S(=O)(=O)c2cccc3cnccc23)CC1 [Compound 1d, 3-(3,4-Dihydroxyphenyl)-1-(4-(isoquinolin-5-ylsulfonyl)-1,4-diazepan-1-yl)propan-1-one]
MTT (%) (HEK293T cells): < 20%
viability at 16 h, 20 µM (MTT viability assay; 20 μM): 100 ± 1.02%
viability at 16 h, 60 µM (MTT viability assay; 60 μM): 103.7 ± 0.837%
half-life at 1 h, 8 µM [1]: 35.7 min
EC50 ([2]; 80% MeOH, 30 min, 517 nm, read-out: Radical scavenging activity EC50 (DPPH method)): 9.68 µM
IC50 ([2]; supplementary CSV): 10.4 ± 0.7 µM
Stern–Volmer quenching constant KSV [3]: 1.68 × 10^5 L mol^–1
mRNA levels of HMOX1 and NQO1 ([4]; 20 μM, 4, 8 and 24 h): increased the mRNA levels
protein levels of HO-1 and NQO1 ([4]; 20 μM, maximum after 24 h): increase in the protein levels
HMOX1 and NQO1 levels (mRNA and protein) (SOD1-ALS lymphoblasts): capable of inducing HMOX1 and NQO1 levels in a very significant way
NRF2 induction, CD (concentration needed to double luciferase expression) (NRF2; HEK293T, 3×ARE-LUC): 1 µM
fold induction at 20 µM (NRF2; Homo sapiens, 16 h, 20 microM, supplementary CSV, read-out: NRF2 induction @ 20 microM (fold change)): 4.4 ± 0.27
fold induction at 6 µM (NRF2; Homo sapiens, HEK-293T, 6 µM, HEK293T, 16 h, read-out: Luciferase assay response): 2.5 ± 0.05
fold induction at 20 µM (NRF2; Homo sapiens, HEK-293T, 20 µM, HEK293T, 16 h, read-out: Luciferase assay response): 4.4 ± 0.27
fold induction at 60 µM (NRF2; Homo sapiens, HEK-293T, 60 µM, HEK293T, 16 h, read-out: Luciferase assay response): 13.6 ± 1.6
activation of the NRF2 reporter (NRF2; in words, 6, 20 and 60 μM): dose-dependent activation
inhibition at 100 µM ([5]; 100 μM, read-out: FP % inhibition (± S.E.M.)): < 10%
inhibition of the NRF2–KEAP1 interaction ([5]; FP and DSF, 100 μM or lower concentrations): not able to inhibit
mRNA levels of HMOX1 and NQO1 (Keap1+/+ MEFs): increased the mRNA levels
